The term GI50 denotes the concentration giving 50% growth inhibition.

Like-named read-outs stand apart in the source and are kept apart here.

This passage reports GI50 results from patent US20250388575A1, “HETEROBIFUNCTIONAL COMPOUNDS AND METHODS OF TREATING DISEASE” (Halda Therapeutics OpCo, Inc., priority 2022, published 2025).

Test [1] has as its system VCaP cells. As to the kind of experiment: Cellular growth inhibition assay for VCaP cells, CellTiter-Glo. The format is cell-based, human. The conditions noted are these: VCaP cells, 72 hours, CellTiter-Glo, read-out: GI50. As for the experimental part:
VCaP cells were purchased from American Type Cell Culture (ATCC Cat #CRL2876) and then seeded on poly-D-lysine coated, black clear-bottom 384-well plates at 5000/well in 25 μL Dulbecco's Modified Eagle Medium (DMEM) supplemented with 10% w/w Fetal bovine serum (FBS) and 1% w/w Pen-Strep. Pen-Strep is a commercially available mixture of penicillin G and streptomycin, which is used in mammalian cell culture media to prevent bacterial contamination. Dulbecco's Modified Eagle Medium (DMEM) supplemented with 10% w/w fetal bovine serum (FBS) and 1% w/w Pen-Strep is herein referred to as Treatment Medium. Following seeding of cells in the plates, the plates were spun at 300×g for 30 seconds, then equilibrated to room temperature for 30 minutes, and then deposited in a humidified tissue culture incubator maintained at 37° C. with 5% CO2.
(§1) At 24 hours after seeding of the cells, dilutions of test compound were prepared in DMSO and dissolved in Treatment Medium, to achieve a final DMSO concentration of 0.5% w/w, thereby providing the Test Compound Solution. A 25 μL aliquot of the Test Compound Solution was added to cells in the well plates. An equal volume of a solution containing DMSO and Treatment Medium was used as a negative control. Following treatment of cells with Test Compound Solution or said equal volume of a solution containing DMSO and Treatment Medium, the plates were spun at 300×g for 30 seconds, and then left in an incubator for 72 hours.
(§2) At the end of the treatment duration, cell viability was quantified with CellTiter-Glo 2.0 reagent (Promega Cat #G9243). For this purpose, plates were equilibrated to room temperature for 30 minutes, and then 25 μL of CellTiter-Glo 2.0 reagent was added to cells in the plate wells. Plates were then agitated on a shaker for two minutes at 500 rpm and subsequently incubated at room temperature for 10 minutes. Following incubation, the plates were spun at 3000×g for 30 seconds, then sealed with an optical adhesive cover, and luminescence readings were measured with an EnVision Plate Reader.
(§3) Data was normalized using zero luminescence for baseline. A four-parameter non-linear regression curve fit was applied to dose-response data in GraphPad Prism data analysis software to determine the half-maximal growth inhibitory concentration (GI50) for each test compound.
On the technique in general: ATP-based viability assays read luminescence as a measure of living cells.

The test system of test [2] is T-Rex 293 cell line SC3 cells having increased expression of androgen receptor protein. As to the kind of experiment: Cellular growth inhibition, T-Rex 293 SC3 cells with increased androgen receptor expression (doxycycline), CellTiter-Glo. It counts as cell-based. Particulars: T-Rex 293 SC3 cells with increased androgen receptor expression (exposed to 10 ng/mL doxycycline), 72 hours, CellTiter-Glo; read-out: GI50. As for the experimental part:
(§4) The following types of cells were prepared for this experiment: (i) a T-Rex 293 cell line having increased expression of androgen receptor protein due to exposure to doxycycline and (ii) a T-Rex 293 cell line lacking increased expression of androgen receptor protein. Ability of the test compounds to inhibit proliferation of the foregoing cell types was evaluated according to the procedures set forth below.
(§5) The doxycycline-inducible androgen receptor protein expressing cell line was established using the following protocol: T-Rex 293 cells were purchased from Invitrogen (Cat #R71007) and transfected using Lipofectamine 2000 with the wild-type androgen receptor protein sequence cloned into the pcDNA4/TO vector. Transfected cells were selected using 400 μg/mL Zeocin (Invitrogen Cat #R25001). Following selection, single clones were raised and maintained in Dulbecco's Modified Eagle Medium (DMEM) supplemented with 10% w/w Tetracycline-free fetal bovine serum (FBS) and 250 μg/mL Zeocin. Clones were analyzed for expression of androgen receptor protein in the presence and absence of 10 ng/ml doxycycline (Sigma Cat #D9891), and a single doxycycline-inducible clone (hereinafter “SC3”) was selected for use in downstream assays.
(§6) The SC3 cells were seeded on poly-D-lysine coated, black clear-bottom 384-well plates at 2500/well, in 25 μL Phenol Red Free Dulbecco's Modified Eagle Medium (DMEM) supplemented with 10% w/w charcoal-dextran treated fetal bovine serum (FBS) and 1% w/w pen-strep, with or without 10 ng/mL doxycycline. Pen-Strep is a commercially available mixture of penicillin G and streptomycin, which is used in mammalian cell culture media to prevent bacterial contamination. Phenol Red Free Dulbecco's Modified Eagle Medium (DMEM) supplemented with 10% w/w charcoal-dextran treated fetal bovine serum (FBS) and 1% w/w pen-strep, with or without 10 ng/mL doxycycline is herein referred to as Treatment Medium. Following seeding of cells in the plates, the plates were spun at 300×g for 30 seconds, then equilibrated to room temperature for 30 minutes, and then deposited in a humidified tissue culture incubator maintained at 37° C. with 5% CO2.
as §1, §2, §3

The test system of test [3] is T-Rex 293 cell line SC3 cells lacking increased expression of androgen receptor protein. The test is described as follows: Cellular growth inhibition, T-Rex 293 SC3 cells lacking increased androgen receptor expression (no doxycycline), CellTiter-Glo. The conditions noted are these: T-Rex 293 SC3 cells lacking increased androgen receptor expression (not exposed to doxycycline), 72 hours, CellTiter-Glo; read-out: GI50. The format is cell-based. As for the experimental part: as §4, §5, §6, §1, §2, §3

The subject of test [4] is T47D cells. As to the kind of experiment: Cellular growth inhibition assay for T47D cells, CellTiter-Glo. The format is cell-based, human. Particulars: 72 hours treatment, CellTiter-Glo 2.0. As for the experimental part:
T47D cells were purchased from American Type Cell Culture (ATCC Cat #HTB-133) and then seeded on poly-D-lysine coated, black clear-bottom 384-well plates at 3000/well in 25 μL Dulbecco's Modified Eagle Medium (DMEM) supplemented with 10% w/w Fetal bovine serum (FBS), 0.2 units/mL recombinant human insulin (Gibco Cat #12585014), and 1% w/w Pen-Strep. Pen-Strep is a commercially available mixture of penicillin G and streptomycin, which is used in mammalian cell culture media to prevent bacterial contamination. Dulbecco's Modified Eagle Medium (DMEM) supplemented with 10% w/w fetal bovine serum (FBS), 0.2 units/mL recombinant human insulin, and 1% w/w Pen-Strep is herein referred to as Treatment Medium. Following seeding of cells in the plates, the plates were spun at 300×g for 30 seconds, then equilibrated to room temperature for 30 minutes, and then deposited in a humidified tissue culture incubator maintained at 37° C. with 5% CO2.
as §1
as §2, with “Reader (Perkin Elmer).” for “Reader.”
as §3

On to `CCS(=O)(=O)Nc1ccc(Oc2cccc(N3CC(N4CCN(c5ccc(C(=O)N[C@H]6CC[C@H](Oc7ccc(C#N)c(Cl)c7)CC6)nn5)CC4)C3)c2F)c(-c2cn(C)c(=O)c3[nH]ccc23)c1` [I-12], for which the concentration for 50% growth inhibition (GI50) is under 500 nM in test [1] (Homo sapiens), under 500 nM in test [2], over 3000 nM in test [3] and under 500 nM in test [4] (Homo sapiens).

In the case of `CCS(=O)(=O)Nc1ccc(Oc2cccc(CCC3CCN(c4ccc(C(=O)N[C@H]5CC[C@H](Oc6ccc(C#N)c(Cl)c6)CC5)nn4)CC3)c2F)c(-c2cn(C)c(=O)c3[nH]ccc23)c1` [I-21], the GI50 in test [1] (Homo sapiens) is under 500 nM; in test [2], under 500 nM; in test [3] it was over 3000 nM; in test [4] (Homo sapiens), under 500 nM.

For `CCS(=O)(=O)Nc1ccc(Oc2cccc(COC3CCN(c4ccc(C(=O)N[C@H]5CC[C@H](Oc6ccc(C#N)c(Cl)c6)CC5)nn4)CC3)c2F)c(-c2cn(C)c(=O)c3[nH]ccc23)c1` [I-26], the GI50 is under 500 nM in test [1] (Homo sapiens), under 500 nM in test [2], over 3000 nM in test [3] and under 500 nM in test [4] (Homo sapiens).

Turning to `CCS(=O)(=O)c1ccc(Oc2ccc(OCC3CCN(c4ccc(C(=O)N[C@H]5CC[C@H](Oc6ccc(C#N)c(Cl)c6)CC5)nn4)CC3)cc2)c(-c2cn(C)c(=O)c3[nH]ccc23)c1` [I-41], the GI50 in test [1], in test [2], in test [3] and in test [4] was under 500 nM in each case.

In the case of `CCS(=O)(=O)c1ccc(Oc2ccc(OCC3CCN(c4ccc(C(=O)N[C@H]5CC[C@H](Oc6ccc(C#N)c(Cl)c6)CC5)nn4)CC3)cc2F)c(-c2cn(C)c(=O)c3[nH]ccc23)c1` [I-43], the GI50 in test [1], in test [2], in test [3] and in test [4] was under 500 nM each time.

In the case of `CN(CCCCc1ccc(Oc2ccc(C(C)(C)O)cc2-c2cn(C)c(=O)c3[nH]ccc23)cc1)c1ccc(C(=O)N[C@H]2CC[C@H](Oc3ccc(C#N)c(Cl)c3)CC2)nn1` [I-122], the GI50 in test [1] and in test [4] was under 500 nM in each case.

Regarding `Cn1cc(-c2cc(C(C)(C)O)ccc2Oc2ccc(CCCC3CCN(c4ccc(C(=O)N[C@H]5CC[C@H](Oc6ccc(C#N)c(Cl)c6)CC5)nn4)CC3)cc2)c2cc[nH]c2c1=O` [I-124], the GI50 in test [1] (Homo sapiens) and in test [4] (Homo sapiens) was under 500 nM in each case.

With `CCS(=O)(=O)c1ccc(-c2cn(C)c(=O)c3[nH]ccc23)c(-n2cc(CCC3CCN(c4ccc(C(=O)NC5CCC(Oc6ccc(C#N)c(Cl)c6)CC5)nn4)CC3)ncc2=O)c1` (stereo not drawn) [I-238, N-[4-(3-chloro-4-cyano-phenoxy)cyclohexyl]-6-[4-[2-[4-[5-ethylsulfonyl-2-(6-methyl-7-oxo-1H-pyrrolo[2,3-c]pyridin-4-yl)phenyl]-5-oxo-pyrazin-2-yl]ethyl]-1-piperidyl]pyridazine-3-carboxamide], the GI50 in test [1] (Homo sapiens) is under 500 nM; in test [2], over 3000 nM; in test [3], over 3000 nM.

Consider `Cn1cc(-c2cc(Br)ccc2Oc2ccc(CCC3CCN(c4ccc(C(=O)NC5CCC(Oc6ccc(C#N)c(Cl)c6)CC5)nn4)CC3)cc2)c2cc[nH]c2c1=O` (stereo not drawn) [I-241, 6-[4-[2-[4-[4-bromo-2-(6-methyl-7-oxo-1H-pyrrolo[2,3-c]pyridin-4-yl)phenoxy]phenyl]ethyl]-1-piperidyl]-N-[4-(3-chloro-4-cyano-phenoxy)cyclohexyl]pyridazine-3-carboxamide], for which the results for the GI50 in test [1] (Homo sapiens), in test [2] and in test [3] were under 500 nM, under 500 nM and over 3000 nM, respectively.

`CCS(=O)(=O)Nc1ccc(Oc2ccc(CCC3CCN(c4ccc(C(=O)NC5CCC(Oc6ccc(C#N)c(Cl)c6)CC5)nn4)CC3)c(F)c2)c(-c2cn(C)c(=O)c3ccccc23)c1` (stereo not drawn) [I-242, N-[4-(3-chloro-4-cyano-phenoxy)cyclohexyl]-6-[4-[2-[4-[4-(ethylsulfonylamino)-2-(2-methyl-1-oxo-4-isoquinolyl)phenoxy]-2-fluoro-phenyl]ethyl]-1-piperidyl]pyridazine-3-carboxamide]: the GI50 was under 500 nM in test [1] (Homo sapiens), under 500 nM in test [2] and over 3000 nM in test [3].

`CCS(=O)(=O)c1ccc(Oc2ccc(CCC3CCN(c4ccc(C(=O)NC5CCC(Oc6ccc(C#N)c(Cl)c6)CC5)nn4)CC3)c(F)c2)c(-c2cn(C)c(=O)c3ccccc23)c1` (stereo not drawn) [I-243, N-[4-(3-chloro-4-cyano-phenoxy)cyclohexyl]-6-[4-[2-[4-[4-ethylsulfonyl-2-(2-methyl-1-oxo-4-isoquinolyl)phenoxy]-2-fluoro-phenyl]ethyl]-1-piperidyl]pyridazine-3-carboxamide]: the GI50 was under 500 nM in test [1] (Homo sapiens), under 500 nM in test [2] and over 3000 nM in test [3].

`Cn1cc(-c2cc(C(C)(C)O)ccc2OC2CC(OCC3CCN(c4ccc(C(=O)NC5CCC(Oc6ccc(C#N)c(Cl)c6)CC5)nn4)CC3)C2)c2ccccc2c1=O` (stereo not drawn) [I-247, N-[4-(3-chloro-4-cyano-phenoxy)cyclohexyl]-6-[4-[[3-[4-(1-hydroxy-1-methyl-ethyl)-2-(2-methyl-1-oxo-4-isoquinolyl)phenoxy]cyclobutoxy]methyl]-1-piperidyl]pyridazine-3-carboxamide]: the GI50 is under 500 nM in test [1] (Homo sapiens), under 500 nM in test [2] and over 3000 nM in test [3].

As for `Cn1cc(-c2ccccc2Oc2ccc(OCC3CCN(c4ccc(C(=O)N[C@H]5CC[C@H](Oc6ccc(C#N)c(Cl)c6)CC5)nn4)CC3)cc2)c2cc[nH]c2c1=O` [I-255, N-[4-(3-chloro-4-cyano-phenoxy)cyclohexyl]-6-[4-[[4-[2-(6-methyl-7-oxo-1H-pyrrolo[2,3-c]pyridin-4-yl)phenoxy]phenoxy]methyl]-1-piperidyl]pyridazine-3-carboxamide], the GI50 in test [1] (Homo sapiens) is under 500 nM; in test [2], under 500 nM; in test [3], over 3000 nM.
